Reference: patent US20150119352A1, “DINUCELOSIDE POLYPHOSPHATES FOR THE TREATMENT OF PAIN” (GlobalAcorn Ltd., priority 2012, published 2015)
“Also recorded” adds a separate entry of the source. Like-named read-outs stand apart in the source and are kept apart here.

Tests used:
[1] = test system: male Wistar rats; test: Formalin test (nociceptive behaviour, spontaneous jerking of injected paw); type: in vivo, rat; conditions: for nociceptive behavior after control injection of compound alone: 100 μM (100 μL), no formalin; for IC50: Rattus norvegicus; for IC50 First phase (acute pain), calculated / IC50 Second phase (chronic pain), calculated: Table 1, assuming 40 g rat body weight; for First phase (acute pain) / First phase (acute pain) (μg/kg) / Second phase (chronic pain) / Second phase (chronic pain) (μg/kg): Table 2; for First phase (acute pain) Human (70 kg) nmol / Second phase (chronic pain) Human (70 kg) nmol: Table 2, estimated indicative dose for 70 kg human; for First phase (acute pain) Rat (40 g) nmol / Second phase (chronic pain) Rat (40 g) nmol: Table 2, per 40 g rat; for recalculated effective concentration (second phase): assuming 40 g rat body weight; for number of nocifensive events triggered by the injection of formalin: co-injection 100 μL with formalin
Experimental: FIG. 6. Effects of subcutaneous Ap4A analogues on pain responses induced by intraplantar (right hindpaw) formalin injection. Rats were subcutaneously injected with formalin solution alone (0.5%, 50 μL, control) or co-injected with the formalin solution and solutions with AppCH2ppA (1 μM-100 μM, 100 μL) or AppNHppA (0.1 μM-100 μM, 100 μL). Age-matched control animals were injected with saline. A. Time-course of the effects of subcutaneous AppCH2ppA (a) and AppNHppA (b) on the number of the spontaneous jerkings of the injected paw. B. Bar-graphs of the effects of AppCH2ppA (a, b) and AppNHppA (c, d) on the integral number of spontaneous jerkings. Measurements were made during the acute phase (0-6 min) and tonic phase (7-45 min) of the formalin response. C. Dose-response curves for AppCH2ppA (a) and AppNHppA (b) during tonic and acute phases.
The formalin test experiments were performed on 21-day old male Wistar rats, weighing 40±5 g according to the method described previously (Simonetti et al, 2006; Yegutkin et al, 2008). Briefly, animal was acclimated to an acrylic observation chamber for at least 1 h before the injection of formalin ([…] of 0.5% solution in 0.9% saline) into the dorsal surface of the right hindpaw. Age-matched control animals were injected with saline (100 μL). Immediately after the injection, each animal was returned to the observation chamber and its behavioural characteristics were recorded for 45 min. We noticed consistently observed type of response: spontaneous jerking of the injected paw. The number of jerks was measured for each […], using self-developed computer software.
The effects of AppNHppA and AppCH2ppA were examined on the behavioral reactions of rats in inflammatory pain models. Injection of diluted formalin into a rodent's hindpaw produces a biphasic nociceptive response consisting of immediate (acute phase) and tonic (inflammatory phase) components. The first phase of a formalin response (i.e. 0-5 min after injection) involves a direct effect of formalin on the pain receptors, while changes in animal behavior during the second tonic phase (i.e. 7-45 min after injection) are caused by hyperalgesia that develops due to the sensitization of nociceptive and spinal neurons via mechanisms that are triggered by repetitive stimulation during the first phase.

[2] = test system: rats; test: Hargreaves plantar test under complete Freund adjuvant-induced thermal hyperalgesia; type: in vivo, rat; conditions: for antinociceptive effect on CFA-induced thermal hyperalgesia (paw withdrawal latency): injection (100 μL) into the inflamed hind paw
Experimental: FIG. 8. […] A. Time-course of the effects of 1 and 20 μM (100 μL) of AppCH2ppA and AppNHppA on the paw withdrawal latency (PWL). B. Bar-graphs of the effects of AppCH2ppA and AppNHppA on the integral PWL.
FIG. 10. […] A. Time-course of the effects of i.t. AppCH2ppA on complete Freund adjuvant-induced thermal hyperalgesia (Hargreaves plantar test). B. Bar-graphs of the effects of i.t. AppCH2ppA on rat PWL.

[3] = Table 1, concentration, read-out: IC50 First phase (acute pain)
[4] = Table 1, concentration, read-out: IC50 Second phase (chronic pain)
[5] = co-injection (100 μL) with formalin into paw, read-out: IC50 in the first (acute) phase
[6] = co-injection (100 μL) with formalin into paw, read-out: IC50 in the second (tonic) phase

Structure (SMILES): Nc1ncnc2c1ncn2[C@@H]1O[C@H](COP(=O)(O)OP(=O)(O)CP(=O)(O)OP(=O)(O)OC[C@H]2O[C@@H](n3cnc4c(N)ncnc43)C(O)C2O)C(O)C1O (stereo in doubt) [AppCH2ppA]
- nociceptive behavior after control injection of compound alone [1]: Lack of nociceptive behavior
- IC50 [1, 3]: 32000 ± 2200 nM
- IC50 [1, 4]: 510 ± 60 nM
- IC50 [1, 5]: 31900 ± 22000 nM
- IC50 [1, 6]: 500 ± 60 nM
- IC50 First phase (acute pain), calculated [1]: 80 ± 5.5 nmol/kg
- IC50 Second phase (chronic pain), calculated [1]: 1.28 + 0.06 nmol/kg
- First phase (acute pain) [1]: 80 ± 5.5 nmol/kg
- First phase (acute pain) (μg/kg) [1]: (67) μg/kg
- Second phase (chronic pain) [1]: 1.28 ± 0.06 nmol/kg
- Second phase (chronic pain) (μg/kg) [1]: (1.067) μg/kg
- First phase (acute pain) Human (70 kg) nmol [1]: 5600 nmol
- Second phase (chronic pain) Human (70 kg) nmol [1]: 89.6 nmol
- First phase (acute pain) Rat (40 g) nmol [1]: 3.2 nmol
- Second phase (chronic pain) Rat (40 g) nmol [1]: 0.0512 nmol
- recalculated effective concentration (second phase) [1]: 1.28±0.06 nmolkg
- number of nocifensive events triggered by the injection of formalin [1]: potently reduced
- kH, first (acute) phase ([1]; co-injection with formalin): 0.82±0.09
- kH, second (tonic) phase ([1]; co-injection with formalin): 0.89±0.18
- times more effective reduction of nocifensive behavior in second (tonic) phase compared with first (acute) phase ([1]; rat, in vivo): 60 times
- antinociceptive effect on CFA-induced thermal hyperalgesia (paw withdrawal latency) [2]: antinociceptive effect was observed
- antinociceptive effect ([2]; intra-thecal administration, 20 μM): 27%
- antinociceptive effect ([2]; intraplantar administration): 53%
- antinociceptive effect of intrathecal compared with intraplantar injection ([2]; intrathecal 20 μM, 100 μL): weaker delayed antinociceptive effect; also recorded: less pronounced analgesia
- effect of local peripheral intraplantar injection relative to intrathecal injection ([2]; rat, in vivo): two-fold higher effect

Structure (SMILES): Nc1ncnc2c1ncn2[C@@H]1O[C@H](COP(=O)(O)OP(=O)(O)NP(=O)(O)OP(=O)(O)OC[C@H]2O[C@@H](n3cnc4c(N)ncnc43)C(O)C2O)C(O)C1O (stereo in doubt) [AppNHppA]
- nociceptive behavior after control injection of compound alone [1]: Lack of nociceptive behavior
- IC50 [1, 3]: > 100000 nM
- IC50 [1, 4]: 250 ± 90 nM
- IC50 [1, 5]: > 100000 nM
- IC50 [1, 6]: 250 ± 60 nM
- IC50 First phase (acute pain), calculated [1]: >250 nmol/kg
- IC50 Second phase (chronic pain), calculated [1]: 0.63 ± 0.23 nmol/kg
- First phase (acute pain) [1]: >250 nmol/kg
- First phase (acute pain) (μg/kg) [1]: (209) μg/kg
- Second phase (chronic pain) [1]: 0.63 ± 0.23 nmol/kg
- Second phase (chronic pain) (μg/kg) [1]: (0.526) μg/kg
- First phase (acute pain) Human (70 kg) nmol [1]: 17500 nmol
- Second phase (chronic pain) Human (70 kg) nmol [1]: 44.1 nmol
- First phase (acute pain) Rat (40 g) nmol [1]: 10 nmol
- Second phase (chronic pain) Rat (40 g) nmol [1]: 0.0252 nmol
- recalculated effective concentration (second phase) [1]: 0.63±0.23 nmolkg
- number of nocifensive events triggered by the injection of formalin [1]: potently reduced
- kH, second (tonic) phase ([1]; co-injection with formalin): 0.89±0.18
- antinociceptive effect on CFA-induced thermal hyperalgesia (paw withdrawal latency) [2]: antinociceptive effect was observed
